# Literature values, collected in patent US10881492B2, “Oral care compositions and regimens” (The Procter & Gamble Company, priority 2014, dated 2021).
# Settings: concentration level where the cooling effect can be clearly recognized
row,Structure (SMILES),cooling threshold
1,"CC(C)[C@@H]1CC[C@@H](C)C[C@@H]1O [Example 1-neomenthol, 1-neomenthol]","about 3,000 ppb"
2,CC(C)[C@@H]1CC[C@@H](C)C[C@@H]1O [d-neomenthol],"about 25,000 ppb"
3,CC(C)[C@@H]1CC[C@@H](C)C[C@H]1O [L-menthol],about 800 ppb
